Values quoted from earlier work, collected in US6559138B1, “3-Desoxy-vitamin D3 analog esters” (Syntex (U.S.A.) LLC, priority 2001, dated 2003).

Tests used:
[1] = test system: steroid-induced bone loss; conditions: calcitriol 0.5 to 1.0 micrograms/day plus calcium 1000 mg/day, with or without intranasal calcitonin 400 IU/day
[2] = test system: women with postmenopausal osteoporosis

hypercalcaemia ([2]; at recommended dosages): infrequent and mild
SMILES: C=C1/C(=C\C=C2/CCC[C@]3(C)[C@@H]([C@H](C)CCCC(C)(C)O)CC[C@@H]23)C[C@@H](O)C[C@@H]1O [calcitriol, 1,25-dihydroxyvitamin D3]
effect on steroid-induced bone loss [1]: prevented steroid-induced bone loss
lower rate of new vertebral fractures compared with patients receiving elemental calcium 1000 mg/day ([2]; calcitriol 0.25 microgram twice daily, after 3 years of treatment, patients with mild to moderate disease): 3 fold
tolerability ([2]; overall): well tolerated
